Source: ChEMBL document CHEMBL5230104, “Systemic review on B-RafV600E mutation as potential therapeutic target for the treatment of cancer” (Eur J Med Chem, 2020)

Experiments:
HT-29 [1] = experiment: Antiproliferative activity against human HT-29 cells incubated for 48 hrs by MTT assay; format: functional, cell-based; details: HT-29, 48 h
A549 = experiment: Antiproliferative activity against human A549 cells incubated for 48 hrs by MTT assay; format: functional, cell-based; details: A549, 48 h
PC-3 = experiment: Antiproliferative activity against human PC-3 cells incubated for 48 hrs by MTT assay; format: functional, cell-based; details: PC-3, 48 h
A-375 [2] = experiment: Antiproliferative activity against human A-375 cells incubated for 48 hrs by MTT assay; format: functional, cell-based; details: A-375, 48 h
[3] = molecular target: T1, Serine/threonine-protein kinase B-raf (Homo sapiens, UniProt P15056, V600E); experiment: (§1) Inhibition of B-Raf V600E mutant (unknown origin)
Target sequence in this assay (P15056 whole entry V600E): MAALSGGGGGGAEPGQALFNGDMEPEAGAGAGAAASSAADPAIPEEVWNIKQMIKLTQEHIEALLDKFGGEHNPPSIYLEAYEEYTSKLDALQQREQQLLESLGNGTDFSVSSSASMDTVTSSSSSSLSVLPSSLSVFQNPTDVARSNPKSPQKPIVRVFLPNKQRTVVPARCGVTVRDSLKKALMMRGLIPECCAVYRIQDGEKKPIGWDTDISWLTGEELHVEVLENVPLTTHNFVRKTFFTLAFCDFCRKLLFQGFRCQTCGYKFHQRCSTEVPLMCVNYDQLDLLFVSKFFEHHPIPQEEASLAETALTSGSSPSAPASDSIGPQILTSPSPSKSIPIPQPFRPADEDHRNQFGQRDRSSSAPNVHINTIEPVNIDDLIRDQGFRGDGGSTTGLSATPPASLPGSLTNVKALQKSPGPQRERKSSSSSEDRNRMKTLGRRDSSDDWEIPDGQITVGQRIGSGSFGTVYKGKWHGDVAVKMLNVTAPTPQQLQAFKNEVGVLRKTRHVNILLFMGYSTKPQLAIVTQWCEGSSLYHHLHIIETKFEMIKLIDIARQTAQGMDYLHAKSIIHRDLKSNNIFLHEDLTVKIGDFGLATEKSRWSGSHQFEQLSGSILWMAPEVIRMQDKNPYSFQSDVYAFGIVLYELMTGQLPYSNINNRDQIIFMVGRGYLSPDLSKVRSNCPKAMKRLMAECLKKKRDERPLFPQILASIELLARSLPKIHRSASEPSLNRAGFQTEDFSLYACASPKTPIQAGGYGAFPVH

SK-MEL-2 = experiment: Antiproliferative activity against human SK-MEL-2 cells assessed as inhibition of cell growth; format: functional, cell-based
[4] = molecular target: T2, Serine/threonine-protein kinase B-raf (Homo sapiens, UniProt P15056); experiment: Inhibition of wild type B-Raf (unknown origin)
T2 sequence (P15056 whole entry): as the sequence (P15056 whole entry V600E) above, with E600V counted along it

COLO 205 [5] = experiment: Antiproliferative activity against human COLO 205 cells assessed as inhibition of cell growth; format: functional, cell-based
A-375 [6] = experiment: Antiproliferative activity against human A-375 cells assessed as inhibition of cell growth; format: functional, cell-based
HepG2 [7] = experiment: Antiproliferative activity against human HepG2 cells assessed as inhibition of cell growth; format: functional, cell-based
[8] = Inhibition of full length GST tagged mouse B-Raf V600E mutant measured after 25 mins by ELISA method
WM 266-4 [9] = experiment: Antiproliferative activity against human WM266-4 cells incubated for 24 hrs by MTT assay; format: functional, cell-based; details: WM 266-4, 24 h
SK-MEL-5 = experiment: Antiproliferative activity against human SK-MEL-5 cells; format: functional, cell-based
[10] = test system: Serine/threonine-protein kinase B-raf (Homo sapiens), P15056 [V600E]; experiment: as §1
Sequence of Serine/threonine-protein kinase B-raf (Homo sapiens), P15056 [V600E] (P15056 whole entry V600E): as the sequence (P15056 whole entry V600E) above

A-375 [11] = experiment: Cytotoxicity against human A-375 cells; format: functional, cell-based
A-375 [12] = experiment: Antitumor activity against human A-375 cells xenografted in mouse model assessed as tumor growth inhibition at 50 mg/kg relative to control; format: functional; parameters: scale not given: the % may be the effect or the level left
HUVEC = experiment: Cytotoxicity against HUVEC cells; format: functional, cell-based; details: Homo sapiens
[13] = Inhibition of full length GST tagged mouse B-Raf V600E mutant incubated for 1 hr
SW480 = experiment: Antiproliferative activity against human SW480 cells; format: functional, cell-based
HepG2 [14] = experiment: Antiproliferative activity against human HepG2 cells; format: functional, cell-based
MDA-MB-453 = experiment: Antiproliferative activity against human MDA-MB-453 cells; format: functional, cell-based
SK-MEL-28 = experiment: Antiproliferative activity against human SK-MEL-28 cells; format: functional, cell-based
[15] = molecular target: T1, Serine/threonine-protein kinase B-raf; experiment: Inhibition of B-Raf V600E mutant (unknown origin) by hotspot kinase assay
Target sequence in this assay (P15056 2-766 V600E limits assumed): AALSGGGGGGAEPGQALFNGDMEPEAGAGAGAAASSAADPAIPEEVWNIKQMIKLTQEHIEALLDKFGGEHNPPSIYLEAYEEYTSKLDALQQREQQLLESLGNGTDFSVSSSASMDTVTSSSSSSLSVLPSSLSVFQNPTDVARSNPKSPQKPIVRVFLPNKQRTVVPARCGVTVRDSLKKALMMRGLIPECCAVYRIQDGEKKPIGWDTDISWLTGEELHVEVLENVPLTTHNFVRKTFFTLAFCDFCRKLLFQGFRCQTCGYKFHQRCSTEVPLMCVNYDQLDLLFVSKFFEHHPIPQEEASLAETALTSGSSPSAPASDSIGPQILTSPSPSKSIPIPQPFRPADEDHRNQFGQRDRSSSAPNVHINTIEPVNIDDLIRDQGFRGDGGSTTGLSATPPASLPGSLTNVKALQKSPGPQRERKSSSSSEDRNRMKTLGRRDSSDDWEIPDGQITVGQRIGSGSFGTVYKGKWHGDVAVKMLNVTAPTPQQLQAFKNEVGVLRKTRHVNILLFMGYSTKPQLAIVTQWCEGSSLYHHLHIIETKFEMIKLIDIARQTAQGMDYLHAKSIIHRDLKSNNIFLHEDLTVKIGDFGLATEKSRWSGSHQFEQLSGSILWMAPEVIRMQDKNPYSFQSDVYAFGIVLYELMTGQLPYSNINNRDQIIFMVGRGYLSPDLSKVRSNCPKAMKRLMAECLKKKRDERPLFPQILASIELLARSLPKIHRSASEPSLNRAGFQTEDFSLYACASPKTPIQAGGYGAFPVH

[16] = molecular target: T2, Serine/threonine-protein kinase B-raf; experiment: Inhibition of wild type B-Raf (unknown origin) by hotspot kinase assay
A-375 [17] = experiment: Antiproliferative activity against human A-375 cells; format: functional, cell-based
MDA-MB-468 = experiment: Antiproliferative activity against human MDA-MB-468 cells; format: functional, cell-based
K562 = experiment: Antiproliferative activity against human K562 cells; format: functional, cell-based
[18] = molecular target: T1, Serine/threonine-protein kinase B-raf; experiment: Binding affinity to B-Raf V600E mutant (unknown origin)
Target sequence in this assay (P15056 2-766 V600E limits assumed): as above

RPMI-8226 = experiment: Antiproliferative activity against human RPMI-8226 cells; format: functional, cell-based
HT-29 [19] = experiment: Antiproliferative activity against human HT-29 cells assessed as inhibition of cell growth incubated for 72 hrs by MTT assay; format: functional, cell-based; details: HT-29, 72 h
[20] = molecular target: T1, Serine/threonine-protein kinase B-raf; experiment: Inhibition of B-Raf V600E mutant (unknown origin) by ELISA based assay
Target sequence in this assay (P15056 2-766 V600E limits assumed): as above

COLO 205 [21] = experiment: Antiproliferative activity against human COLO 205 cells assessed as inhibition of cell growth incubated for 72 hrs by MTT assay; format: functional, cell-based; details: COLO 205, 72 h
A-375 [22] = experiment: Antiproliferative activity against human A-375 cells assessed as inhibition of cell growth incubated for 72 hrs by MTT assay; format: functional, cell-based; details: A-375, 72 h
[23] = molecular target: T2, Serine/threonine-protein kinase B-raf; experiment: Inhibition of wild type B-Raf (unknown origin) by ELISA based assay
RKO = experiment: Antiproliferative activity against human RKO cells incubated for 72 hrs by celltiter glo assay; format: functional, cell-based
WM-115 = experiment: Antiproliferative activity against human WM-115 cells incubated for 72 hrs by celltiter glo assay; format: functional, cell-based; details: WM-115, 72 h
COLO 205 [24] = experiment: Antiproliferative activity against human COLO 205 cells incubated for 72 hrs by celltiter glo assay; format: functional, cell-based; details: COLO 205, 72 h
A-375 [25] = experiment: Antiproliferative activity against human A-375 cells incubated for 72 hrs by celltiter glo assay; format: functional, cell-based; details: A-375, 72 h
SW1417 = experiment: Antiproliferative activity against human SW1417 cells incubated for 72 hrs by celltiter glo assay; format: functional, cell-based; details: SW1417, 72 h
A-375 [26] = experiment: Antiproliferative activity against human A-375 cells assessed as inhibition of cell viability; format: functional, cell-based
[27] = molecular target: T2, Serine/threonine-protein kinase B-raf; experiment: Inhibition of human wild type B-Raf (433 to 726 residues) expressed in Escherichia coli BL21 cells by ELISA based assay
[28] = molecular target: T1, Serine/threonine-protein kinase B-raf; experiment: Inhibition of human B-Raf V600E mutant (433 to 726 residues) expressed in Escherichia coli BL21 cells by ELISA based assay
Target sequence in this assay (P15056 2-766 V600E limits assumed): as above

[29] = Inhibition of full length GST tagged mouse B-Raf V600E mutant preincubated for 1 hr and measured after 25 mins in presence of ATP
WM 266-4 [30] = experiment: Antiproliferative activity against human WM266-4 cells incubated for 48 hrs by MTT based colorimetric method; format: functional, cell-based; details: WM 266-4, 48 h
A-375 [31] = experiment: Antiproliferative activity against human A-375 cells incubated for 48 hrs by MTT based colorimetric method; format: functional, cell-based; details: A-375, 48 h
[32] = molecular target: Serine/threonine-protein kinase B-raf (Mus musculus, UniProt P28028); experiment: Inhibition of full length GST tagged mouse wild type B-Raf preincubated for 1 hr and measured after 25 mins in presence of ATP
Sequence of Serine/threonine-protein kinase B-raf (Mus musculus, UniProt P28028) (P28028 whole entry): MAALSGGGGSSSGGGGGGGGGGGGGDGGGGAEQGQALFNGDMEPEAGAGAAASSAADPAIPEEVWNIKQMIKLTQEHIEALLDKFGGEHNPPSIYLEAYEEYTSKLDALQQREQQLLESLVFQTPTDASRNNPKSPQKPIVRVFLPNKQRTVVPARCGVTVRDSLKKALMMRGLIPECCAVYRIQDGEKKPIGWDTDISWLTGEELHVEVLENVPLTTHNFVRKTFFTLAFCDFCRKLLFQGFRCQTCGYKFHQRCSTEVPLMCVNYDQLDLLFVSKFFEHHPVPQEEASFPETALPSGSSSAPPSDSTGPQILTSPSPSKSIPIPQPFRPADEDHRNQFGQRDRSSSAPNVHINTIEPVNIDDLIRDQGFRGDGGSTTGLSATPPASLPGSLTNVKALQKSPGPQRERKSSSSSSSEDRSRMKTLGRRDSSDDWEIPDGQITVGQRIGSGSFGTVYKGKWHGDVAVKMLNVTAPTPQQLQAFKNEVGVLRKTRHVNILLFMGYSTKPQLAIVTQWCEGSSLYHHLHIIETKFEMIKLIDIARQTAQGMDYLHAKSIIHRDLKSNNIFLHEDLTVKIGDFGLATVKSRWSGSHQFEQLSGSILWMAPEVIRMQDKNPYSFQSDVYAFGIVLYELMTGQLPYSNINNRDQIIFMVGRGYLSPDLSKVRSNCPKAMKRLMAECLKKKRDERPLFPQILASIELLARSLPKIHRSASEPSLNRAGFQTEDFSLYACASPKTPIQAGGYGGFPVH

[33] = molecular target: T1, Serine/threonine-protein kinase B-raf; experiment: Inhibition of B-Raf V600E mutant (unknown origin) incubated for 1 hr by ELISA based luminescence assay
Target sequence in this assay (P15056 2-766 V600E limits assumed): as the sequence (P15056 2-766 V600E limits assumed) above

[34] = molecular target: T2, Serine/threonine-protein kinase B-raf; experiment: Inhibition of wild type B-Raf (unknown origin) incubated for 1 hr by ELISA based luminescence assay
WM 266-4 [35] = experiment: Antiproliferative activity against human WM266-4 cells measured after 48 hrs by MTT assay; format: functional, cell-based; details: WM 266-4, 48 h
A-375 [36] = experiment: Antiproliferative activity against human A-375 cells measured after 48 hrs by MTT assay; format: functional, cell-based; details: A-375, 48 h
[37] = Antiproliferative activity against human WM1361 cells measured after 48 hrs by MTT assay; format: functional, cell-based; details: WM1361, 48 h

Cn1ncc2c(Oc3ccc(NC(=O)Nc4ccc(Cl)c(C(F)(F)F)c4)cc3)ncnc21
IC50 (HT-29 [1]): 14700 nM | IC50 (A549): 12500 nM | IC50 (PC-3): 23400 nM | IC50 (A-375 [2]): 12200 nM

Cc1ccc(C(=O)Nc2ccc(Cl)c(C(F)(F)F)c2)cc1NC(=O)C1(c2ccnc(NCCN3CCN(C)CC3)n2)CC1
IC50 [3]: 12.6 nM | IC50 (SK-MEL-2): 580 nM | IC50 [4]: 19.7 nM | IC50 (COLO 205 [5]): 1920 nM | IC50 (A-375 [6]): 1070 nM | IC50 (HepG2 [7]): 2460 nM

Oc1ccccc1C1CC(c2ccc(Cl)c(Cl)c2)=NN1c1ccccc1 (configuration not stated)
IC50 [8]: 150 nM | IC50 (WM 266-4 [9]): 1750 nM

O=S(=O)(NCCCNc1cc(-c2cn(-c3ccccc3)nc2-c2cccc(O)c2)ccn1)c1ccc(Cl)cc1
IC50 [3]: 1160 nM | IC50 [4]: 4870 nM | IC50 (SK-MEL-5): 1270 nM

CNC(=O)c1nc2ccc(C(=O)c3cccc(NC(=O)Nc4ccc(Cl)c(C(F)(F)F)c4)c3)cc2[nH]1
IC50 [10]: 57.8 nM | IC50 (A-375 [11]): 3620 nM | Activity (A-375 [12]): 17.99% | IC50 (HUVEC): 12500 nM

Cc1ccc(NC(=S)NNC(=O)CNc2nc(-c3ccccc3)c(-c3ccccc3)s2)cc1
IC50 [13]: 1300 nM

CNC(=O)c1cc(Cn2ccc3cc(NC(=O)Nc4ccc(Cl)c(C(F)(F)F)c4)ccc32)ccn1
IC50 (SW480): 13500 nM | IC50 [3]: 510 nM | IC50 (HepG2 [14]): 6630 nM | IC50 (MDA-MB-453): 21900 nM

COc1cc(-c2nn(-c3ccc(NC(=O)CN4CCOCC4)cc3)cc2-c2ccncc2)ccc1Cl
IC50 (SK-MEL-28): 2210 nM | IC50 [15]: 2.98 nM | IC50 [16]: 536 nM | IC50 (A-375 [17]): 1820 nM

COc1cccc(-c2nn(-c3ccccc3)cc2-c2ccncc2)c1
IC50 (MDA-MB-468): 6700 nM | IC50 (K562): 3420 nM | IC50 [18]: 1440 nM | IC50 (RPMI-8226): 1710 nM

CCC[S+]([O-])Nc1ccc(F)c(Cc2c[nH]c3nc(N)n(C)c(=O)c23)c1F (configuration not stated)
IC50 (HT-29 [19]): 550 nM | IC50 [20]: 50 nM | IC50 (COLO 205 [21]): 1640 nM | IC50 (A-375 [22]): 800 nM | IC50 [23]: 440 nM

CCCCN1CCN(Oc2cc3nccc(Oc4ccc(NS(=O)(=O)c5cc(F)ccc5F)cc4F)c3cc2OC)CC1
IC50 [3]: 91 nM | IC50 [4]: 100 nM

CC(=O)Nc1cc(-c2sc(C3CCN(C4CC4)CC3)nc2-c2cccc(NS(=O)(=O)c3cc(F)ccc3F)c2F)ccn1
IC50 (RKO): 2280 nM | IC50 (WM-115): 148 nM | IC50 (COLO 205 [24]): 5 nM | IC50 (A-375 [25]): 3 nM | IC50 (SW1417): 208 nM

CC(C)(C)c1cc(NC(=O)Nc2ccc(Oc3ccnc4[nH]c(=O)cnc34)cc2F)n(-c2ccccc2)n1
IC50 [4]: 100 nM | IC50 (A-375 [26]): 12000 nM

COC(=O)c1ccccc1-c1ccc(/C=C/[N+](=O)[O-])o1
IC50 [27]: 1380 nM | IC50 [28]: 1960 nM

COc1ccc(-n2cc(Nc3cccc4[nH]ncc34)cn2)cc1
IC50 [29]: 40 nM | IC50 (WM 266-4 [30]): 380 nM | IC50 (A-375 [31]): 340 nM | IC50 [32]: 770 nM

Cc1cnc2[nH]cc(C(=O)c3c(F)ccc(N[S+]([O-])C(C)C)c3F)c2c1 (configuration not stated)
IC50 [33]: 54 nM | IC50 [34]: 200 nM

O=S(=O)(Nc1ccc(F)c(Nc2ccccc2-c2ncnc3[nH]cnc23)c1F)c1ccoc1
IC50 [3]: 2 nM | IC50 [4]: 2.2 nM

Cc1nn(-c2ccccc2)c(Cl)c1Nc1ccc(C(F)(F)F)cc1
IC50 [3]: 66 nM | IC50 (A-375 [17]): 810 nM

COc1ccc(S(=O)(=O)Nc2cc(-c3ccc(C)cc3)[nH]n2)cc1
IC50 (WM 266-4 [35]): 1580 nM | IC50 [29]: 180 nM | IC50 (A-375 [36]): 2040 nM | IC50 [37]: 10100 nM
